≈ marks a conversion by molar mass, not a printed value.
Experiments:
[1] = X-ray powder diffraction (XRPD) identification of the crystal form; assay type: physicochemical; details: OXY133 sample, method/solvent system
Excerpt: The many crystalline forms obtained by subjecting a slurry of OXY133 to different conditions of re-slurrying, recrystallizing from different solvent systems at different temperatures may be identified by many analytical methods, for example, XRPD, HPLC-CAD, DSC-TGA and others known in the art. In certain embodiments, the OXY133 polymorphs may be characterized, at least in part, by X-ray Powder Diffraction (XRPD). In particular, crystalline solids produce a distinctive diffraction pattern of peaks, represented in what is referred to as a diffractogram. The peak assignments for a given crystalline material, for example, degree 2θ values, may vary slightly, depending on the instrumentation used to obtain the diffractogram and certain other factors, for example, sample preparation. Nevertheless, these variations should not be more than +/−0.2 degrees 2θ and the relative spacing between the peaks in the diffractogram will always be the same, regardless of the instrumentation used or the method of sample preparation, and the like.
The equipment utilized to collect the XRPD patterns depicted in FIGS. 2A-13B was a Bruker D8 Advance diffractometer using Cu radiation (40 kV, 25 mA) with a divergence slit of 0.3° (0.6 mm), wherein variable slits must be operated in fixed mode. The axial Soller slits, primary and secondary were each set at 2.5°. The anti-scatter slit was set at 0.3° (0.6 mm). The secondary monochromator anti-scatter slit was set at 1 mm and the detector slit at 0.1 mm. If a secondary monochromator is not used, then a suitable […] must be used, namely a Ni filter for Cu radiation. The linear detector LYNXEYE was set at 30 detector opening with the angle scanned from 2 to 45° 2Θ.

[2] = Karl-Fisher (KF) water determination of isolated solid; assay type: physicochemical; details: for KF (water content determined by Karl Fischer water determination method): OXY133 sample, method/solvent system, processing point, temperature and time as in the table row; for KF (Wt %) water content of isolated solid: solid isolated from acetone/water slurry at 0, 10 or 25° C.
Excerpt: Further, Table 8 below is a list of OXY133 polymorphs Forms A, B, C, D, E, F, G, H and I identified by a high performance liquid chromatography (HPLC) followed by charged aerosol detector (CAD) method. Table 4 also lists the starting products, the solvent system including solvent and anti-solvent, the temperature at which a polymorph was formed, the water content of the polymorph as determined by the Karl-Fisher (KF) method of water determination, and where available the yield and purity of the resulting polymorph.

[3] = Solubility of OXY133 Form B in organic solvents; details: ambient temperature of about 20° C.
physchem = details: acetone, organic solvent or mixture, thermodynamic from solid
[4] = for stability in the acetone/water solvent system: acetone/water slurry
[5] = Stability of the crystal form on drying in a vacuum oven; assay type: physicochemical; details: drying at temperatures above about 20° C. to about 30° C.
Method: 2.0 g anhydrous OXY133 was added to 10 mL isopropanol in a 100 mL polyblock reactor. The mixture was heated to 30° C. and then stirred at 30° C. for 45 minutes until the solids were dissolved completely. Acceptable heating temperatures ranged from 25° C. to 35° C. A polish filtration step can be added after dissolving the anhydrous OXY133. The mixture of anhydrous OXY133 and isopropanol was then cooled to 5° C. 20 mL of water was then added to the cooled mixture over 120 minutes at 5° C., resulting in the formation of a precipitate approximately one third of the way through the addition of water. The water addition can also be done in temperature ranges from about 0° C. to about 20° C. with no significant effect on the crystal structure. The resulting mixture of OXY133, isopropanol and water was then stirred at 5° C. for 18 hours. However, it is recommended that the resulting mixture could be mixed for at least 2 hours at 5° C. after the water addition was complete to ensure that all solids were precipitated from the solution. A white solid was collected by rapidly filtering the mixture and then washing the solid with 2.0 mL of an isopropanol:water mixture in a ratio of 1:2 v/v. The filtered and washed solids were then dried in a vacuum oven at 20′C. Acceptable temperatures for drying can range from about 20° C. to about 30′C.

[6] = DSC/TGA (differential scanning calorimetry and thermo-gravimetric analysis); assay type: physicochemical; details: isolated solid of Example 6
Method: Differential scanning calorimetry (DSC) and thermo-gravimetric analysis (TGA) were also collected for some of the OXY133 polymorphs. The equipment utilized to collect the DSC/TGA data was a Mettler Toledo DSC 2 equipped with an aluminum 40 μL crimped pan with a pin hole and the ramp rate was 10° C./min. DSC/TGA thermograms identifying several OXY133 polymorphs are illustrated in FIGS. 20-25.

[7] = Table 8, processing point (slurry/solid/after drying), temperature and time as in the table row
[8] = Table 9, processing point, temperature

## CCCCCC[C@](C)(O)[C@H]1CC[C@H]2[C@@H]3C[C@H](O)[C@H]4C[C@@H](O)CC[C@]4(C)[C@H]3CC[C@@]21C [Form 2891-8-3]
[1]; [7]
  Crystal Form (XRPD): Form A
[1]; [8]
  Crystal Form (XRPD): Form A
[2]
  KF (water content determined by Karl Fischer water determination method): 3.25%
  KF (Wt %) water content of isolated solid: 3.25 Wt %

## CCCCCC[C@](C)(O)[C@H]1CC[C@H]2[C@@H]3C[C@H](O)[C@H]4C[C@@H](O)CC[C@]4(C)[C@H]3CC[C@@]21C [Form 2891-9-3]
[1]; [7]
  Crystal Form (XRPD): Form A
[1]; [8]
  Crystal Form (XRPD): Form A
[2]
  KF (water content determined by Karl Fischer water determination method): 3.83%
  KF (Wt %) water content of isolated solid: 3.83 Wt %

## CCCCCC[C@](C)(O)[C@H]1CC[C@H]2[C@@H]3C[C@H](O)[C@H]4C[C@@H](O)CC[C@]4(C)[C@H]3CC[C@@]21C [Form 2891-10-3]
[1]; [7]
  Crystal Form (XRPD): Form A
[1]; [8]
  Crystal Form (XRPD): Form A
[2]
  KF (water content determined by Karl Fischer water determination method): 4.02%
  KF (Wt %) water content of isolated solid: 4.02 Wt %

## CCCCCC[C@](C)(O)[C@H]1CC[C@H]2[C@@H]3C[C@H](O)[C@H]4C[C@@H](O)CC[C@]4(C)[C@H]3CC[C@@]21C [Form B]
[3]; isopropanol
  solubility in isopropanol (IPA): good
[3]; tetrahydrofuran
  solubility in tetrahydrofuran: good
physchem; 20 °C
  solubility: ~10 mg/mL (≈ 23.8 mM)
physchem; 56 °C
  solubility: ~80 mg/mL (≈ 190 mM)

## CCCCCC[C@](C)(O)[C@H]1CC[C@H]2[C@@H]3C[C@H](O)[C@H]4C[C@@H](O)CC[C@]4(C)[C@H]3CC[C@@]21C [Form C]
[4]
  stability in the acetone/water solvent system: fairly stable
[4]; slurry stirred at about 20° C. in acetone/water
  conversion from Form C to Form A or Form B: no conversion

## CCCCCC[C@](C)(O)[C@H]1CC[C@H]2[C@@H]3C[C@H](O)[C@H]4C[C@@H](O)CC[C@]4(C)[C@H]3CC[C@@]21C [Form F]
[4]
  stability in the acetone/water solvent system: somewhat stable
[4]; acetone/water system, stirred at about 20° C. or about 5° C.
  conversion to any other polymorph forms: would not convert

## CCCCCC[C@](C)(O)[C@H]1CC[C@H]2[C@@H]3C[C@H](O)[C@H]4C[C@@H](O)CC[C@]4(C)[C@H]3CC[C@@]21C.O [OXY133 Monohydrate, (3S,5S,6S,8R,9S,10R,13S,14S,17S)-17-((S)-2-hydroxyoctan-2-yl)-10,13-dimethylhexadecahydro-1H-cyclopenta[a]phenanthrene-3,6-diol, monohydrate]
[5]
  crystal form stability on drying: slow conversion
[2]; isolated solid of Example 6 (IPA/water 1:2, 5° C., dried at 20° C.)
  KF water content: 4.07%
[6]
  DSC/TGA: 4.76%

— US20170275330A1, “POLYMORPHIC FORMS OF AN OXYSTEROL AND METHODS OF MAKING THEM” (Warsaw Orthopedic, Inc., priority 2016, published 2017)
